PubChem BioAssay (NCI)
Values joined by “and” are separate entries in the source; they are usually repeats but may differ in a detail not shown here. Equal values may be shown once.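 Following 48 hours of exposure in 96-well plates, responses at five concentrations were used to interpolate endpoints linearly. The concentration for 50% growth inhibition is given as GI50. At the TGI there is no net growth.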

What was measured:
Test in all cases: DTP human tumour cell line panel, 48 h
DLD-1 colon = system: DLD-1 colon
DMS 273 small cell lung = system: DMS 273 small cell lung
HOP-18 NSCLC = system: HOP-18 NSCLC
KM20L2 colon = system: KM20L2 colon
M19-MEL melanoma = system: M19-MEL melanoma
MDA-MB-435 = system: MDA-MB-435
MDA-N = system: MDA-N
RXF-631 renal = system: RXF-631 renal
SNB-78 CNS = system: SNB-78 CNS

Row | SMILES | TGI (DLD-1 colon) | TGI (DMS 273 small cell lung) [µM] | TGI (HOP-18 NSCLC) | TGI (KM20L2 colon) | TGI (M19-MEL melanoma) | GI50 (MDA-MB-435) [µM] | TGI (MDA-MB-435) [µM] | GI50 (MDA-N) [µM] | TGI (MDA-N) [µM] | TGI (RXF-631 renal) | TGI (SNB-78 CNS) [µM] | GI50 (DLD-1 colon) [µM] | GI50 (HOP-18 NSCLC) [µM] | GI50 (KM20L2 colon) [µM] | GI50 (M19-MEL melanoma) [µM] | GI50 (RXF-631 renal) [µM]
1 | C/C(=N\NC(=S)N1CCC1)c1ccccn1 | > 100 µM | 1.82 | > 100 µM | > 100 µM | > 100 µM | 0.357 | 73.7 | 0.476 | > 100 | > 64.6 µM | > 100 |  |  |  |  | 
2 | CCCCCCCCCCCCCC(=O)O[C@H]1CC[C@H](NC(=O)[C@H](OC)[C@H](O)[C@@H](O)[C@H](O)/C=C/C(C)C)C(=O)N(C)C1 | 15 µM and > 23.8 µM | 0.00403 | 15 µM and > 23.8 µM | 15 µM and 3.8 µM | 15 µM and 3.89 µM |  |  |  |  | 15 µM and 4.07 µM | 15 | 0.00278 | 11.3 | < 0.0015 | 0.00238 | 0.00238
3 | Cc1ccc(-n2c3nc(=O)n(C)c(=O)c-3nc3ccccc32)c(C)c1 | 39.9 µM | 18.5 | 20.1 µM | 17.6 µM | 3.33 µM |  |  |  |  | 23.9 µM | 44.5 |  |  |  |  | 
